From ChEMBL document CHEMBL2321761, “Discovery of novel dual inhibitors of the wild-type and the most prevalent drug-resistant mutant, S31N, of the M2 proton channel from influenza A virus” (J Med Chem, 2013) come the findings set out here.

Test [1] has as its system Influenza A virus. Put plainly: Antiviral activity against influenza A virus A/WSN/33-S31N infected in dog MDCK cells after 2 days by naphthalene black dye staining based plaque reduction assay. It is filed as functional, organism-based. On the technique in general: In a plaque reduction assay, fewer plaques than in the control indicate reduced infectivity or spread.
The subject of test [2] is Influenza A virus. Put plainly: Antiviral activity against wild type influenza A virus A/WSN/33-N31S infected in dog MDCK cells at 1 uM after 2 days by naphthalene black dye staining based plaque reduction assay. The format is functional, organism-based.

Structures are written as SMILES. Activity calls are given as the source filed them. The calls are words filed in the database; no cut-off is given here.

For orientation: EC50 means the concentration giving half of the maximal effect. The low end stands for a more potent agent, the high end for a less potent agent. For `NC12CC3CC(CC(C3)C1)C2` [AMANTADINE], in the test on Influenza A virus [1], the EC50 came to 22.5 µM. On to `Oc1ccc(CNC23CC4CC(CC(C4)C2)C3)c(O)c1`, for which the concentration giving a half-maximal response (EC50) with Influenza A virus [1] was determined as 3.2 µM. Also, the inhibition result with Influenza A virus [2] was “Active”.
